Data on 17 compounds can be found in patent publication US20240336611A1 (Insilico Medicine IP Limited, priority 2021, published 2024).

Series [1] in a line: Metabolic stability in human liver microsomes. The series is classed as in vitro ADME. The conditions noted are these: LM Clint (intrinsic clearance); 1 μM test compound, 0.5 mg protein/mL microsome, 37° C., up to 60 min. The procedure:
2.1. Test Compound and Control Working Solution Preparation: Working solution: 5 µL of compound and control stock solution (10 mM in dimethyl sulfoxide (DMSO)) were diluted with 495 μL of acetonitrile (ACN) (intermediate solution concentration: 100 μM, 99% ACN).
2.2.1. […] 2.2.2. Preparation Procedure: The appropriate amount of NADPH powder were weighed and diluted into a 10 mM MgCl2 solution (working solution concentration: 10 unit/mL; final concentration in reaction system: 1 unit/mL).
2.3.2. Preparation Procedure: The appropriate concentrations of microsome working solutions were prepared in 100 mM potassium phosphate buffer. 2.4. Stop Solution Preparation: Cold (4° C.) acetonitrile (ACN) containing 200 ng/mL tolbutamide and 200 ng/mL labetalol as internal standards (IS) were used as the stop solution.
2.5.1. Pre-warm empty ‘Incubation’ plates T60 and NCF60 for 10 min minutes. 2.5.2. Liver microsomes were diluted to 0.56 mg/mL in 100 mM phosphate buffer. 2.5.3. 445 uL microsome working solutions (0.56 mg/mL) were transferred into pre-warmed ‘Incubation’ plates T60 and NCF60. Then ‘Incubation’ plates T60 and NCF60 were pre-incubated for 10 min at 37° C. with constant shaking. 54 μL liver microsomes were transferred to blank plate, then 6 μL NAPDH cofactor were added to the blank plate, and then 180 μL quenching solution can be added to blank plate. 2.5.4 5 μL compound working solution (100 μM) were added into ‘incubation’ plates (T60 and NCF60) containing microsomes and mix 3 times thoroughly. 2.5.5. For the NCF60 plate, 50 uL of buffer were added and were mixed 3 times thoroughly. Start timing; plate was incubated at 37° C. for 60 min while shaking. 2.5.6. In ‘Quenching’ plate TO, 180 μL quenching solution were added and 6 μL NAPDH cofactor were added. Ensured the plate was chilled to prevent evaporation. 2.5.7. For the T60 plate, were mixed 3 times thoroughly, and immediately removed 54 μL mixture for the 0-min time point to ‘Quenching’ plate. Then 44 μL NAPDH cofactor were added to incubation plate (T60). Start timing; plate were incubated at 37° C. for 60 min while shaking.
2.5.8. At 5, 10, 20, 30, and 60 min, 180 μL quenching solution were added to ‘Quenching’ plates, mix once, and were serially transferred 60 μL sample from T60 plate per time point to ‘Quenching’ plates.
2.5.9. For NCF60: were mixed once, and 60 μL sample were transferred from the NCF60 incubation to ‘Quenching’ plate containing quenching solution at the 60-min time point.
2.5.10. All sampling plates were shaken for 10 min, then centrifuged at 4000 rpm for 20 minutes at 4° C. 2.5.11. 80 μL supernatant were transferred into 240 μL HPLC water, and were mixed by plate shaker for 10 min. 2.5.12. Each bioanalysis plate were sealed and shaken for 10 minutes prior to LC-MS/MS analysis.
3.1. The equation of first order kinetics were used to calculate T1/2 and Intrinsic clearance (CLint mic) in (μL/min/mg).
Equation of first order kinetic.
(In general: Microsomes from liver hold many membrane-bound enzymes, among them those of drug oxidation.)

In series [2] the target is T1, TNIK kinase [amino acid sequence (1-367), Invitrogen] (Homo sapiens, UniProt Q9UKE5).
T1 construct: purchased Invitrogen
T1 sequence (Q9UKE5 1-367): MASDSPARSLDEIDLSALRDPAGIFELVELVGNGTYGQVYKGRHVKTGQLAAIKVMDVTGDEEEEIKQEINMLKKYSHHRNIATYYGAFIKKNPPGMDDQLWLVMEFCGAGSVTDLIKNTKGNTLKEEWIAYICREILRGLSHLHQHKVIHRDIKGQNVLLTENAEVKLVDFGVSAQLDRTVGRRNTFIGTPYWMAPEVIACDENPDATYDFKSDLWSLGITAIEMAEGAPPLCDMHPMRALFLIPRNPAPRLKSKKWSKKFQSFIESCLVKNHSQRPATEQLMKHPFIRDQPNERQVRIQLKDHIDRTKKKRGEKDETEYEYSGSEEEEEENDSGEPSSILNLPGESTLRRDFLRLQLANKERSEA
The experiment in a line: TNIK kinase inhibition assay (Z-lyte FRET-peptide). It is filed as biochemical. The conditions noted are these: 0.625 nM TNIK kinase, 2 μM Ser/Thr 7 peptide, 64 μM ATP, one hour at room temperature.

For orientation: IC50 means the point on the concentration scale where inhibition reaches its midpoint. On to `O=C(Nc1ccc(N2CCOCC2)cn1)c1coc(-c2c(-c3ccc(F)cc3)ncn2C2CC(F)(F)C2)n1` [Compound 66, 2-(1-(3,3-difluorocyclobutyl)-4-(4-fluorophenyl)-1H-imidazol-5-yl)-N-(5-morpholinopyridin-2-yl)oxazole-4-carboxamide], for which the “Human Liver Microsome (μM/min/mg)” value in series [1] was “++ (10-100 μM/min/mg as ++)”. The IC50 in series [2] was in the range of 12 to 150 nM.

For the compound `[2H]C([2H])([2H])N1CCN(c2ccc(NC(=O)c3c[nH]c(-c4c(-c5ccc(F)cc5)ncn4C(C)C)n3)c(F)c2)CC1` [Compound 126, 2-[5-(4-fluorophenyl)-3-isopropyl-imidazol-4-yl]-N-[2-fluoro-4-[4-(trideuteriomethyl)piperazin-1-yl]phenyl]-1H-imidazole-4-carboxamide], in series [1], the “Human Liver Microsome (μM/min/mg)” value was “++ (10-100 μM/min/mg as ++)”. The compound further returned an IC50 in series [2] of 1 to 12 nM.

As for `CC(C)n1cnc(-c2ccc(F)cc2)c1-c1nc(C(=O)Nc2ccc(N3CC4CC(C3)N4C)cn2)cs1` [Compound 44, 2-(4-(4-fluorophenyl)-1-isopropyl-1H-imidazol-5-yl)-N-(5-(6-methyl-3,6-diazabicyclo[3.1.1]heptan-3-yl)pyridin-2-yl)thiazole-4-carboxamide], in series [1], the “Human Liver Microsome (μM/min/mg)” value is on record as “++ (10-100 μM/min/mg as ++)”. Besides, in series [2], the IC50 lay within 1 to 12 nM.

Consider `CN1C2CC1CN(c1ccc(NC(=O)c3csc(-c4c(-c5ccc(F)cc5)ncn4C4CC(F)(F)C4)n3)nc1)C2` [Compound 83, 2-(1-(3,3-difluorocyclobutyl)-4-(4-fluorophenyl)-1H-imidazol-5-yl)-N-(5-(6-methyl-3,6-diazabicyclo[3.1.1]heptan-3-yl)pyridin-2-yl)thiazole-4-carboxamide], for which, in series [1], the “Human Liver Microsome (μM/min/mg)” value is listed as “++ (10-100 μM/min/mg as ++)”. The IC50 in series [2] fell in the range of 1 to 12 nM.

Turning to `CN1C2CC1CN(c1ccc(NC(=O)c3csc(-c4c(-c5ccc(F)cc5)ncn4C4CC(F)(F)C4)n3)c(F)c1)C2` [Compound 86, 2-(1-(3,3-difluorocyclobutyl)-4-(4-fluorophenyl)-1H-imidazol-5-yl)-N-(2-fluoro-4-(6-methyl-3,6-diazabicyclo[3.1.1]heptan-3-yl)phenyl)thiazole-4-carboxamide], in series [1], the “Human Liver Microsome (μM/min/mg)” value was “++ (10-100 μM/min/mg as ++)”. Moreover, in series [2], the half-inhibitory concentration (IC50) lay within 1 to 12 nM.

Take `CC(C)n1cnc(-c2ccc(F)cc2)c1-c1nc(C(=O)Nc2ccc(N3CC4CC(C3)N4C)cc2)c[nH]1` [Compound 23, 5′-(4-fluorophenyl)-3′-isopropyl-N-(4-(6-methyl-3,6-diazabicyclo[3.1.1]heptan-3-yl)phenyl)-1H,3′H-[2,4′-biimidazole]-4-carboxamide]: the “Human Liver Microsome (μM/min/mg)” value in series [1] is “++ (10-100 μM/min/mg as ++)”. The compound further showed an IC50 in series [2] of 1 to 12 nM.

`CC(C)c1onc(-c2ccc(F)cc2)c1-c1nc(C(=O)Nc2ccc(N3CC4CC(C3)N4C)cc2F)cs1` [Compound 98, N-(2-fluoro-4-(6-methyl-3,6-diazabicyclo[3.1.1]heptan-3-yl)phenyl)-2-(3-(4-fluorophenyl)-5-isopropylisoxazol-4-yl)thiazole-4-carboxamide]: the “Human Liver Microsome (μM/min/mg)” value in series [1] was “++ (10-100 μM/min/mg as ++)”. Besides, in series [2], the 50% inhibitory concentration (IC50) is 1 to 12 nM.

With `CC(C)n1cnc(-c2ccc(F)cc2)c1-c1nc(C(=O)Nc2ccc(N3CC(N(C)C)C3)cn2)cs1` [Compound 64, N-(5-(3-(dimethylamino)azetidin-1-yl)pyridin-2-yl)-2-(4-(4-fluorophenyl)-1-isopropyl-1H-imidazol-5-yl)thiazole-4-carboxamide], the “Human Liver Microsome (μM/min/mg)” value in series [1] is “+ (>100 μM/min/mg as +)”. This compound came in with an IC50 in series [2] of 1 to 12 nM.

`CC(C)n1cnc(-c2ccc(F)cc2)c1-c1nc(C(=O)Nc2ccc(N3CCOCC3)cc2F)cs1` [Compound 100, N-(2-fluoro-4-morpholinophenyl)-2-(4-(4-fluorophenyl)-1-isopropyl-1H-imidazol-5-yl) thiazole-4-carboxamide]: the “Human Liver Microsome (μM/min/mg)” value in series [1] was “++ (10-100 μM/min/mg as ++)”. Also, the IC50 in series [2] is 1 to 12 nM.

Consider `CN1C2CC1CN(c1ccc(NC(=O)c3csc(-c4c(-c5ccc(F)cc5)ncn4C4CC4)n3)nc1)C2` [Compound 45, 2-(1-cyclopropyl-4-(4-fluorophenyl)-1H-imidazol-5-yl)-N-(5-(6-methyl-3,6-diazabicyclo[3.1.1]heptan-3-yl)pyridin-2-yl)thiazole-4-carboxamide], for which the “Human Liver Microsome (μM/min/mg)” value in series [1] is given as “++ (10-100 μM/min/mg as ++)”. In addition, in series [2], the IC50 fell in the range of 1 to 12 nM.

`CC(C)n1cnc(-c2ccc(F)cc2)c1-c1nc(C(=O)Nc2ccc3c(c2)CN(C)CC3)cs1` [Compound 56, 2-(4-(4-fluorophenyl)-1-isopropyl-1H-imidazol-5-yl)-N-(2-methyl-1,2,3,4-tetrahydroisoquinolin-7-yl)thiazole-4-carboxamide]: the “Human Liver Microsome (μM/min/mg)” value in series [1] is listed as “+ (>100 μM/min/mg as +)”. Also, the IC50 in series [2] fell in the range of 1 to 12 nM.

Regarding `CC(C)n1cnc(-c2ccc(F)cc2)c1-c1nc(C(=O)Nc2ccc(C3CN(C)C3)cn2)co1` [Compound 102, 2-(4-(4-fluorophenyl)-1-isopropyl-1H-imidazol-5-yl)-N-(5-(1-methylazetidin-3-yl)pyridin-2-yl)oxazole-4-carboxamide], the “Human Liver Microsome (μM/min/mg)” value in series [1] is “++ (10-100 μM/min/mg as ++)”. The compound also came in with an IC50 in series [2] of 12 to 150 nM.

With `CC(C)n1cnc(-c2ccc(F)cc2)c1-c1nc(C(=O)Nc2ccc(N3CCN(C)CC3)cn2)cs1` [Compound 7, 2-(4-(4-fluorophenyl)-1-isopropyl-1H-imidazol-5-yl)-N-(5-(4-methylpiperazin-1-yl)pyridin-2-yl)thiazole-4-carboxamide], in series [1], the “Human Liver Microsome (μM/min/mg)” value is given as “+ (>100 μM/min/mg as +)”. Also, the IC50 in series [2] lay in the range of 1 to 12 nM.

As for `CC(C)n1cnc(-c2ccc(F)cc2)c1-c1csc(C(=O)Nc2ccc(N3CCN(C)CC3)cn2)n1` [Compound 13, 4-(4-(4-fluorophenyl)-1-isopropyl-1H-imidazol-5-yl)-N-(5-(4-methylpiperazin-1-yl)pyridin-2-yl)thiazole-2-carboxamide], the “Human Liver Microsome (μM/min/mg)” value in series [1] was “+ (>100 μM/min/mg as +)”. The same compound showed an IC50 in series [2] of 1 to 12 nM.

Regarding `CC(C)c1noc(-c2ccc(F)cc2)c1-c1nc(C(=O)Nc2ccc(N3CC4CC(C3)N4C)cn2)cs1` [Compound 95, 2-(5-(4-fluorophenyl)-3-isopropylisoxazol-4-yl)-N-(5-(6-methyl-3,6-diazabicyclo[3.1.1]heptan-3-yl)pyridin-2-yl)thiazole-4-carboxamide], the “Human Liver Microsome (μM/min/mg)” value in series [1] is given as “++ (10-100 μM/min/mg as ++)”. Also, the half-inhibitory concentration (IC50) in series [2] was 1 to 12 nM.

For `CC(C)n1cnc(-c2ccc(F)cc2)c1-c1nc(C(=O)Nc2ccc(N3CCP(C)(=O)CC3)cn2)cs1` [Compound 85, 2-(4-(4-fluorophenyl)-1-isopropyl-1H-imidazol-5-yl)-N-(5-(4-methyl-4-oxido-1,4-azaphosphinan-1-yl)pyridin-2-yl)thiazole-4-carboxamide], in series [1], the “Human Liver Microsome (μM/min/mg)” value was “++ (10-100 μM/min/mg as ++)”. In series [2], this compound gave an IC50 of 1 to 12 nM.

For `[2H]C([2H])([2H])N1CC(c2ccc(NC(=O)c3csc(-c4c(-c5ccc(F)cc5)noc4C(C)C)n3)nc2)C1` [Compound 115, 2-[3-(4-fluorophenyl)-5-isopropyl-isoxazol-4-yl]-N-[5-[1-(trideuteriomethyl)azetidin-3-yl]-2-pyridyl]thiazole-4-carboxamide], the “Human Liver Microsome (μM/min/mg)” value in series [1] is “++ (10-100 μM/min/mg as ++)”. The IC50 in series [2] fell in the range of 1 to 12 nM.
